Data from US20230097553A1 (priority 2020, published 2023).
Values joined by “and” are separate entries in the source; they are usually repeats but may differ in a detail not shown here. Identical values can stand only once. Like-named read-outs stand apart in the source and are kept apart here.

Legend:
[1] = test system: COVID-19; experiment: Compassionate use in small-scale (10 cases) COVID-19 patients; assay type: in vivo, human
[2] = test system: COVID-19; experiment: Compassionate use in large-scale (132 cases) COVID-19 patients; assay type: in vivo, human; details: patients who took leflunomide within 18 days of admission
[3] = test system: Ebola virus replicon; experiment: microbe, parasite or virus in culture; assay type: cell-based; details: for IC50: Zaire ebolavirus
[4] = test system: influenza virus A/WSN/33 (H1N1); design: species or system BALB/c female mice; details: mouse, in vivo
[5] = test system: 2019-nCoV (2019BetaCoV/Wuhan/WIV04/2019 strain); experiment: microbe, parasite or virus in culture; assay type: cell-based
[6] = Antiviral activity in combination with other antiviral drugs; details: combined with lopinavir, ritonavir, ribavirin, remdesivir, oseltamivir, tamiflu, lanimivir, peramivir, chloroquine
[7] = test system: MDCK cells; details: dog
[8] = in vitro; details: Syrian hamster
[9] = test system: avian influenza virus A/GuangZhou/99 (H9N2); experiment: organism not typed; assay type: cell-based
[10] = Drug toxicity by CellTiter-Glo (CC50), 2019-nCoV host cells; details: African green monkey, Vero E6 cells
[11] = Severe acute respiratory syndrome coronavirus 2, Vero C1008, 48 h

Cc1oncc1C(=O)Nc1ccc(C(F)(F)F)cc1 [Leflunomide, leflunomide]
Time to negative conversion after treatment ([1]; leflunomide experimental group, Number of Patients 1): 4 days
Time to negative conversion after treatment ([1]; leflunomide experimental group, Number of Patients 3): 8 days
Time to negative conversion after treatment ([1]; leflunomide experimental group, Number of Patients 4): 5 days
CRP after treatment ([1]; leflunomide experimental group, n = 5, range (5-5), normal 0-10, P value 0.109 vs before): 5 mg/L
CRP before treatment ([1]; leflunomide experimental group, n = 5, range (7.8-120.6), normal 0-10): 37.4 mg/L
level of C-reactive protein ([1]; small-scale (10 cases), after leflunomide treatment): significantly reduced
time to negative conversion (median) ([1]; small-scale (10 cases), control group median 11 days, P=0.046): 5 days
time from taking leflunomide (LEF) to negative conversion (VC), median [2]: 6.5 days
time from admission (AD) to negative conversion (VC), median ([2]; control group median 25 days): 16 days
SI [3]: 10.66
IC50 ([3]; BSR-T7/5, 24 h): 15.3 µM
mice rescued from death [4]: 50% and 100%
SI [5]: 21.19
IC50 [5, 11]: 41.5 µM
therapeutic effects in combination with other antiviral drugs [6]: better therapeutic effects
CC50 [7]: 69.6 µM
CC50 [8]: 163 µM
SI [9]: 8.58
IC50 ([9]; MDCK): 8.12 µM
CC50 at 72 h [10]: 879 µM

C/C(O)=C(\C#N)C(=O)Nc1ccc(C(F)(F)F)cc1 [Teriflunomide, teriflunomide]
SI [3]: 32.26
IC50 ([3]; BSR-T7/5, 24 h): 3.41 µM
IC50 ([3]; BSR-T7/5, read-out: drug concentration at which inhibitory efficiency on virus replication reaches 50%): 0.923 µg/mL
SI [5]: 141.75
IC50 [5, 11]: 6 µM
IC50 ([5]; Severe acute respiratory syndrome coronavirus 2, Vero C1008, read-out: drug concentration at which inhibitory efficiency on virus replication reaches 50%): 1.62 µg/mL
CC50 [8]: 110 µM
SI [9]: 53.13
IC50 ([9]; MDCK): 3.36 µM
IC50 ([9]; unidentified influenza virus, H9N2, MDCK, read-out: drug concentration at which inhibitory efficiency on virus replication reaches 50%): 0.9 µg/mL
